The values that follow come from patent US6100272A, “Tetracyclic spiro compounds as 5HT1B receptor antagonists” (SmithKline Beecham p.l.c., priority 1996, dated 2000).

T1 sequence (P28222 whole entry): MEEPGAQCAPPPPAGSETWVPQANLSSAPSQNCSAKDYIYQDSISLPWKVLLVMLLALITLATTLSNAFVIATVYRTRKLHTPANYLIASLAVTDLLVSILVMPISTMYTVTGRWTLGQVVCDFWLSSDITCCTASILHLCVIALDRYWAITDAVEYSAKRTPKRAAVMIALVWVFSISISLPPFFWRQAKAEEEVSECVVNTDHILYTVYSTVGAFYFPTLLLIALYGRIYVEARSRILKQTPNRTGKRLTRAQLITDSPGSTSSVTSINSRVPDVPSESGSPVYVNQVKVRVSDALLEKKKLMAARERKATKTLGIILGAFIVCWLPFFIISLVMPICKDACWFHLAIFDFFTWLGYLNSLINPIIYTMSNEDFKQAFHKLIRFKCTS

One experiment addresses T1, 5-HT 1B receptors (Homo sapiens, UniProt P28222).
T1 construct: expressed in transfected cells; host or cells: CHO cells (homogenised in Tris buffer)
Nature of the experiment: 5-HT 1B and 5-HT 1D receptor binding ([3H]-5-HT displacement, CHO cell homogenates). Particulars: CHO cells expressing receptor; [3H]-5-HT 4 nM; Tris Mg HCl buffer pH 7.7; 37° C., 45 minutes; pKi calculated from IC50. The protocol:
CHO cells expressing 5-HT 1D receptors (0.563×10^8 cells/ml) were homogenised in Tris buffer and stored in 1 ml aliquots. CHO cells expressing 5-HT 1B receptors (4×10^7 cells/ml) were homogenised in Tris buffer and stored in 1.5 ml aliquots. 0.4 ml of a cell suspension was incubated with [^3 H-5-HT (4 nM) in Tris Mg HCl buffer (pH 7.7) and test drug, at 37° C. for 45 minutes. Each test drug was tested at 10 concentrations (0.01 mM to 0.3 nM final concentration), with non-specific binding defined using 0.01 mM 5-HT. The total assay volume was 0.5 ml. Incubation was stopped by rapid filtration using a Packard Filtermate (filters pre-soaked in 0.3% polyethylenimine) and radioactivity measured by Topcount scintillation counting. pKi values were calculated from the IC50 generated by an iterative least squares curve fitting programme.
`Cc1cc(N2CCCC2=O)ccc1-c1ccc(C(=O)N2CCc3cc4c(cc32)C2(CO4)C[C@@H](C)N(C)[C@@H](C)C2)cc1` (stereo partly drawn) [Example 28, cis-2',6'-dimethyl isomer of 5-[2'-Methyl-4'-(2-oxopyrrolidin-1-yl)biphenyl-4-carbonyl]-2,3,6,7-tetrahydro-1',2',6'-trimethylspiro[furo[2,3-f]indole-3,4'-piperidine]]: the “pKi values at 5-HT 1D beta receptors” value is on record as above 8.0.

The experiment is the same for the next values; noted with them: CHO cells expressing receptor; [3H]-5-HT 4 nM; Tris Mg HCl buffer pH 7.7; 37° C., 45 minutes; pKi calculated from IC50; read-out: pKi values at 5-HT 1D beta receptors (converted).
Consider `Cc1cc(N2CCC(C)C2=O)ccc1-c1ccc(C(=O)N2CCc3cc4c(cc32)C2(CCN(C)CC2)CO4)cc1` (stereo not drawn) [Example 9], for which the Ki was below 10 nM. `C=CCN1CCC2(CC1)COc1cc3c(cc12)N(C(=O)c1ccc(-c2ccc(N4CCCC4=O)cc2C)cc1)CC3` [Example 24, 1'-Allyl-5-[2'-methyl-4'-(2-oxopyrrolidin-1-yl)biphenyl-4-carbonyl]-2,3,6,7-tetrahydrospiro[furo[2,3-f]indole-3,4'-piperidine]]: the Ki is below 10 nM. On the same count and under the same terms, for `Cc1cc(N2CCN(C)C2=O)ccc1-c1ccc(C(=O)N2CCc3cc4c(cc32)C2(CCN(C)CC2)CO4)cc1` [Example 8] the value was below 10 nM; for `Cc1cc(N2CCOC2=O)ccc1-c1ccc(C(=O)N2CCc3cc4c(cc32)C2(CCN(C)CC2)CO4)cc1` [Example 3, 5-[4'-(4,5-Dihydro-2-oxooxazol-3-yl)-2'-methylbiphenyl-4-carbonyl]-1'-methyl-2,3,6,7-tetrahydrospiro[furo[2,3-f]indole-3,4'-piperidine]], below 10 nM; for `CN1CCC2(CC1)COc1cc3c(cc12)N(C(=O)c1ccc(-c2ccc(N4CCCC4=O)cc2Cl)cc1)CC3` [Example 14], below 10 nM. The same measure, in the same setting: to `CC(=O)Nc1ccc(-c2ccc(C(=O)N3CCc4cc5c(cc43)C3(CCN(C)CC3)CO5)cc2)c(C)c1` [Example 4, 5-(4'-Acetamido-2'-methylbiphenyl-4-carbonyl)-1'-methyl-2,3,6,7-tetrahydrospiro[furo[2,3-f]indole-3,4'-piperidine]] belongs below 10 nM. Take `Cc1cc(N2CCNC2=O)ccc1-c1ccc(C(=O)N2CCc3cc4c(cc32)C2(CCN(C)CC2)CO4)cc1` [Example 7]: the Ki was below 10 nM.

Consider `Cc1cc(N2CCCC2=O)ccc1-c1ccc(C(=O)C2=C3CC4=C(C=C3N=C2)OCC42CCN(C)CC2)cc1` [Example 33, 2,3-Dihydro-1'-methyl-5-[2'-methyl-4'-(2-oxopyrrolidin-1-yl)biphenyl-4-carbonyl]spiro[furo[3,2-f]indole3,4'-piperidine]], for which the Ki was below 10 nM.
